{"source": "patent US9919060B2", "about": "(University Court of the University of Dundee, priority 2009, dated 2018)", "key": {"CYP1B1 [1]": {"molecular_target": "T1, CYP1B1 (Homo sapiens, UniProt Q16678)", "T1 sequence (Q16678 1-543)": "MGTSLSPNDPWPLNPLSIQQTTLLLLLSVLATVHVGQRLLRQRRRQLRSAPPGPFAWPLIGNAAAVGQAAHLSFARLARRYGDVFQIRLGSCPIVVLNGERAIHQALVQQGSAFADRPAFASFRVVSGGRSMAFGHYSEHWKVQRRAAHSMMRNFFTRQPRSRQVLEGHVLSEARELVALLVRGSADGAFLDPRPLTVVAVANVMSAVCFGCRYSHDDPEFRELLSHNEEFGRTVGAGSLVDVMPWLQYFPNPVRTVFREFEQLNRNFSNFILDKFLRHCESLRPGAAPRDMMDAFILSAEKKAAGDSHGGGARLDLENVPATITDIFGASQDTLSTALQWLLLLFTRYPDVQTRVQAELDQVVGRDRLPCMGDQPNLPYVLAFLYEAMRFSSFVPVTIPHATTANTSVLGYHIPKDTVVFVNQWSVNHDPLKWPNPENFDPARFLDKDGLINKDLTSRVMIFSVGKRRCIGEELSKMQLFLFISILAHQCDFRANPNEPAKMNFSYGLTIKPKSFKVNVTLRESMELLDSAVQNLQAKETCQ", "assay": "CYP1B1 substrate prediction model (Gaussian Kernel weighted k-NN)"}, "[2]": {"tested_on": "human liver microsomes (HLM)", "assay": "Fragmentation of benzofuran ether and carbamate linked coumarins by pooled human liver microsomes (coumarin anion release)", "conditions": "for Specific fragmentation activity, HLM: 60 μl HLM in 1.5 ml final reaction volume, NADPH, pH 7.4, mean ± standard deviation of three measurements", "protocol": "(§1) Supersomal™ enzyme metabolism was started by adding a stock solution of prodrug dissolved in DMSO to give a final concentration of 10 μmol dm^−3 prodrug and 0.5% DMSO. HLM screening used 60 microliter microsomes, 100 μmol dm^−3 NADPH, in 10 mmol dm^−3 potassium phosphate buffer at pH 7.4 and 37 OC, in 1.5 ml total reaction volume.\n(§2) Therefore, enzymatic hydroxylation of the hetero-aromatic trigger and resultant linker fragmentation can be monitored in real time by release of the coumarin anion by kinetic fluorimetry.\n(§3) Release of the coumarin anion indicative of linker fragmentation was monitored using a 1 cm path length fluorescence cell in a Cary Eclipse kinetic flourimeter with excitation and emission slits set at 5 nm. Coumarin anion release from compounds of the invention was detected at the excitation wavelength λex=350·nm and the emission wavelength λem=450 nm. Change in fluorescence intensity was quantified against a linear calibration plot of fluorescence intensity versus coumarin concentration (0 to 3.5 μmol dm^−3) in 10 mmol dm^−3 potassium phosphate buffer at pH 7.4 using the same instrument settings as for enzyme metabolism."}, "CYP1B1 [3]": {"molecular_target": "T1, CYP1B1", "assay": "Fragmentation of benzofuran ether and carbamate linked coumarins by Supersomal CYP1B1 (coumarin anion release, kinetic fluorimetry)", "assay_type": "biochemical", "design": "purchased BD Gentest, Oxford, UK", "conditions": "10 pmol enzyme, 10 μmol dm^−3 prodrug, NADPH, pH 7.4, 37° C.; mean ± standard deviation of three measurements", "protocol": "as §1, §2, §3"}, "CYP1A2": {"molecular_target": "T2, CYP1A2 (Homo sapiens, UniProt P05177)", "T2 construct": "purchased BD Gentest, Oxford, UK", "T2 sequence (P05177 2-516 limits assumed)": "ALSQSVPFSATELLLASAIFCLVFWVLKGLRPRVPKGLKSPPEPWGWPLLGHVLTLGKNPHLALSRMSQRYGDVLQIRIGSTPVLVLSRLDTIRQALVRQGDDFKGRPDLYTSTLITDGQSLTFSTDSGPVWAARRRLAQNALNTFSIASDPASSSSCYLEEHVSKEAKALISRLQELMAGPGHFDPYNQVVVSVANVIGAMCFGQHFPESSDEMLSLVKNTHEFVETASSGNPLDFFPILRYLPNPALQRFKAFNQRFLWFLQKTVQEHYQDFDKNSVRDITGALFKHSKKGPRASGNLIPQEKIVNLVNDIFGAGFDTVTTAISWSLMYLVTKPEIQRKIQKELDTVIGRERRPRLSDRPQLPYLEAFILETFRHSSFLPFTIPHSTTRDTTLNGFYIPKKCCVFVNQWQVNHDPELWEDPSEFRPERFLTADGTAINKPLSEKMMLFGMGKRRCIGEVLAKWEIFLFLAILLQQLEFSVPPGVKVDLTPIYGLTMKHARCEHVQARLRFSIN", "assay": "Fragmentation of benzofuran ether and carbamate linked coumarins by Supersomal CYP1A2 (coumarin anion release, kinetic fluorimetry)", "assay_type": "biochemical", "conditions": "10 pmol enzyme, 10 μmol dm^−3 prodrug, NADPH, pH 7.4, 37° C.; mean ± standard deviation of three measurements", "protocol": "as §1, §2, §3"}, "[4]": {"tested_on": "UTSCC-14 primary human tumour xenograft", "assay": "Anti-tumour activity in primary human tumour xenograft model (UTSCC-14, subcutaneous, nude mice)", "assay_type": "in vivo", "conditions": "for Tumour growth delay at 28 days: 2 cycles: daily for 5 days/2 days off", "method": "Primary UTSCC-14 cell lines 3×10^6 were implanted subcutaneously in the flank of nude mice. Mice were randomized to 10 animals per group when the tumour volume was 100 to 150 mm^3. SU046-04 was given intraperitoneally at 12, 25 and 50 mg/Kg in PBS versus versus vehicle alone for 2 cycles: daily for 5 days/2 days off. Tumour volume was measured every 4 days using calipers. […] Tumour growth delay at 28 days was 31% at 12 mg/Kg, 56% at 25 mg/Kg, and 90% at 50 mg/Kg with 4/10 complete responses."}}, "note": "Entries after “also recorded” stand apart in the source; their conditions may differ."}
{"smiles": "Oc1ccc(C=Cc2cc(O)cc(O)c2)cc1", "note": "[resveratrol]", "values": [{"measurement": "% CYP1B1 substrate inhibition, accuracy (predicted versus actual)", "setting": "CYP1B1 [1]", "result": 95, "unit": "%"}]}
{"smiles": "O=c1cc(-c2ccccc2)oc2c1ccc1ccccc12", "note": "[α-napthoflavone, α-naphthoflavone, reference compound]", "values": [{"measurement": "Effect of α-naphthoflavone on HLM-mediated SU10A fragmentation (coumarin release)", "setting": "[2]; HLM, inclusion of 10 μmol dm^−3 α-naphthoflavone", "result": "inhibits SU10A fragmentation"}]}
{"smiles": "C[C@]12CC[C@@H]3c4ccc(O)cc4CC[C@H]3[C@@H]1CC[C@@H]2O", "note": "[β-estradiol]", "values": [{"measurement": "% CYP1B1 substrate inhibition, accuracy (predicted versus actual)", "setting": "CYP1B1 [1]", "result": 95, "unit": "%"}]}
{"smiles": "COc1cc(OC)c2oc(COC(=O)Nc3ccc4c(C)cc(=O)oc4c3)cc2c1", "note": "[VG041-05, (5,7-dimethoxybenzofuran-2-yl)methyl 4-methyl-2-oxo-2H-chromen-7-ylcarbamate]", "values": [{"measurement": "Specific fragmentation activity, CYP1B1", "setting": "CYP1B1 [3]", "result": "not CYP1A2 or CYP1B1; also recorded: no release"}, {"measurement": "Specific fragmentation activity, CYP1A2", "setting": "CYP1A2", "result": "no release"}, {"measurement": "Specific fragmentation activity, HLM", "setting": "[2]", "result": "no release"}]}
{"smiles": "COc1ccc2oc(COC(=O)Nc3ccc4c(C)cc(=O)oc4c3)cc2c1", "note": "[VG032-05, (5-methoxybenzofuran-2-yl)methyl 4-methyl-2-oxo-2H-chromen-7-ylcarbamate]", "values": [{"measurement": "Specific fragmentation activity, CYP1A2", "setting": "CYP1A2", "result": "no release"}]}
{"smiles": "COc1cc(OC)c2oc(COP(=O)(NCCCl)NCCCl)cc2c1", "note": "[SU025-04]", "values": [{"measurement": "% CYP1B1 substrate inhibition, accuracy (predicted versus actual)", "setting": "CYP1B1 [1]", "result": 96, "unit": "%"}]}
{"smiles": "COc1cc(OC)c2oc(COP(=O)(NCCBr)NCCBr)cc2c1", "note": "[SU046-04]", "values": [{"measurement": "% CYP1B1 substrate inhibition, accuracy (predicted versus actual)", "setting": "CYP1B1 [1]", "result": 96, "unit": "%"}, {"measurement": "Tumour growth delay at 28 days", "setting": "[4]; 12 mg/Kg intraperitoneally", "result": 31, "unit": "%"}, {"measurement": "Tumour growth delay at 28 days", "setting": "[4]; 25 mg/Kg intraperitoneally", "result": 56, "unit": "%"}, {"measurement": "Tumour growth delay at 28 days", "setting": "[4]; 50 mg/Kg intraperitoneally", "result": 90, "unit": "%"}, {"measurement": "Complete responses", "setting": "[4]; 50 mg/Kg intraperitoneally, 10 animals per group", "result": "4/10"}, {"measurement": "Adverse effects and body weight loss", "setting": "[4]; after highest exposure 250 mg/Kg", "result": "No observed adverse effects or significant body weight loss"}, {"measurement": "Tumour growth compared to the vehicle alone", "setting": "[4]; all three treatment arms: 12, 25 and 50 mg/Kg intraperitoneally", "result": "significant inhibition of tumour growth"}]}
{"smiles": "CCOc1ccc2nc3ccc(=O)cc-3oc2c1", "note": "[ethoxyresorufin, 7-ethoxyresorufin]", "values": [{"measurement": "% CYP1B1 substrate inhibition, accuracy (predicted versus actual)", "setting": "CYP1B1 [1]", "result": 95, "unit": "%"}]}
{"smiles": "Cc1cc(=O)oc2cc(NC(=O)OCc3cc4ccccc4o3)ccc12", "note": "[SU018-03, benzofuran-2-ylmethyl 4-methyl-2-oxo-2H-chromen-7-ylcarbamate]", "values": [{"measurement": "Specific fragmentation activity, CYP1B1", "setting": "CYP1B1 [3]", "result": "no release"}, {"measurement": "Specific fragmentation activity, CYP1A2", "setting": "CYP1A2", "result": "no release"}, {"measurement": "Specific fragmentation activity, HLM", "setting": "[2]", "result": "no release"}]}
{"smiles": "C=C[C@H]1C[N@@]2CC[C@H]1C[C@@H]2[C@@H](O)c1ccnc2ccc(OC)cc12", "note": "[quinidine]", "values": [{"measurement": "% CYP1B1 substrate inhibition, accuracy (predicted versus actual)", "setting": "CYP1B1 [1]", "result": 64, "unit": "%"}]}
{"smiles": "Nc1ccc(S(=O)(=O)Nc2ccnn2-c2ccccc2)cc1", "note": "[sulfaphenazole]", "values": [{"measurement": "% CYP1B1 substrate inhibition, accuracy (predicted versus actual)", "setting": "CYP1B1 [1]", "result": 68, "unit": "%"}]}
